# Tests used:
# [1] = system: MV4-11 cells; assay: Apoptosis determination via Annexin V and PI staining; type: cell-based, human
# Experimental: Camptothecin at a concentration of 0.05 uM was used as a positive control. After incubation, the cells were collected and counted with a hemocytometer, and 1×10^5 cells were washed twice with PBS. APC-Annexin V (Becton Dickinson, Pharmingen, Franklin Lakes, NJ, USA) was dissolved to the concentration of […] in a binding buffer (10 mM HEPES/NaOH, pH 7.4; 150 mM NaCl; 5 mM KCl; 1 mM MgCl2; and 1.8 mM CaCl2) (HIIET, Wrocław, Poland), and the cells were suspended in 200 µL of this solution. After 15 min of the incubation in the dark at room temperature, 20 µL of propidium iodide (PI) solution (0.02 mg/mL) was added. Data acquisition was performed by conducting flow cytometry using a BD LSRFortessa cytometer (BD Bioscience, San Jose, CA, USA). The compounds were tested at least three times independently. Results were analyzed using Flowing software 2.5.1 (Turku, Finland). […] Double-negative cells were live cells, PI+/Annexin V+ were late apoptotic cells, PI-/Annexin V+ were early apoptotic cells, and PI+/Annexin V- were necrotic cells.
# [2] = system: human pancreas cancer MiaPaca-2 cells; assay: Antiproliferative activity, SRB assay, 72 h; type: cell-based; conditions: for IC50: Homo sapiens, MIA PaCa-2, MiaPaca-1 (so in the source), 72 h, SRB, read-out: IC50; for SI: IC50 MCF-10A / IC50 MiaPaca-1 (so in the source)
# Experimental: (§1) The tested compounds were dissolved in DMSO (dimethyl sulfoxide) to a concentration of 10 mg/mL and then were diluted in the culture medium to reach the final concentrations. The cells were plated in 384-well plates at a density of 1 × 10^3 or 2 × 10^3 (MCF-10A) cells per well (Greiner Bio One, Kremsmünster, Austria) and in 96-well plates (MV4-11 cell; Sarstedt, Nümbrecht, Germany) at a density of 5 × 10^3 cells per well. After 24 h of incubation, the tested compounds were added at concentrations in the range of 100–0.03 µg/mL and, after the next 72 h of exposure to tested agents, the cytotoxic effect of all agents was examined using the MTT (MV4-11) or SRB assay, described previously. The values of IC50 (inhibitory concentration 50%) were calculated separately for each experiment (repeated 3–5 times) using the Prolab-3 system which is based on Cheburator 0.4 software. Doxorubicin was applied as a reference drug. The IC50 values in µg/mL were calculated to µM.
# (§2) The cytotoxicity assay was performed after the cultured cells were exposed to the tested agents for 72 h using the authomatic Washer dyspenser EL406, BioTek. At the first step, the washer dispenser collected 40 µL of cultured medium from each wells, and then the cells were fixed by gently layering 20 µL per well of cold 25% trichloroacetic acid to each well. The incubation time was 40 min and then the plates were washed with tap water. The cells were stained with 20 µL per well of 0.1% sulforhodamine B (SRB, Merck, Darmstadt, Germany) for 30 min. Unbound sulforhodamine B was removed by washing it with 1% acetic acid. The protein-bound dye was extracted in 30 min using 70 µL per well of 10 mM unbuffered Tris base (Merck, Darmstadt, Germany). The absorbance (at 540 nm) was measured on a Synergy H4 photometer (BioTek Instruments, Winooski, VT, USA). The absorbance of the wells without the cells was the background.
# [3] = system: human prostate adenocarcinoma PC-3; assay: Antiproliferative activity, SRB assay, 72 h; type: cell-based; conditions: for IC50: Homo sapiens, PC-3, 72 h, SRB, read-out: IC50; for SI: IC50 MCF-10A / IC50 PC-3
# Experimental: as §1, §2
# [4] = system: human colon cancer HCT116 cells; assay: Antiproliferative activity, SRB assay, 72 h; type: cell-based; conditions: for IC50: Homo sapiens, HCT-116, HCT116, 72 h, SRB, read-out: IC50; for SI: IC50 MCF-10A / IC50 HCT116
# Experimental: as §1, §2
# [5] = system: human breast cancer MCF-7; assay: Antiproliferative activity, SRB assay, 72 h; type: cell-based; conditions: for IC50: Homo sapiens, MCF7, MCF-7, 72 h, SRB, read-out: IC50; for SI: IC50 MCF-10A / IC50 MCF-7
# Experimental: as §1, §2
# [6] = system: human lung carcinoma A549; assay: Antiproliferative activity, SRB assay, 72 h; type: cell-based; conditions: for IC50: Homo sapiens, A549, 72 h, SRB, read-out: IC50; for SI: IC50 MCF-10A / IC50 A549
# Experimental: as §1, §2
# [7] = system: human melanoma Hs294T cells; assay: Antiproliferative activity, SRB assay, 72 h; type: cell-based; conditions: for IC50: Homo sapiens, Hs 294T, Hs249T (so in the source), 72 h, SRB, read-out: IC50; for SI: IC50 MCF-10A / IC50 Hs249T (so in the source)
# Experimental: as §1, §2
# [8] = system: MV4-11 cells; assay: Cell cycle analysis by flow cytometry (propidium iodide); type: cell-based, human; conditions: for number of cells in the G2/M phase / number of cells in the G2/M and S phases: about 1.5 × IC50, statistically significant; for number of death cells / number of cells in the G2/M and S phases: MV4-11, 72 h
# Experimental: After incubation, the cells were collected and counted with a hemocytometer, and the 5×10^5 cells were washed twice in cold PBS (phosphate-buffered saline) and fixed for 24 h in 70% ethanol at −20 °C. Then, the cells were washed twice in PBS and incubated with 0.5 mL of RNAse (8 μg/mL, Thermo Fisher, Waltham, MA, USA) at 37 °C for 1 h. The cells were stained for 30 min with propidium iodide (final concentration: 50 μg/mL, Merck, Darmstadt, Germany) at 4 °C and the cellular DNA content was analyzed by conducting flow cytometry using a BD LSRFortessa cytometer (BD Bioscience, San Jose, CA, USA). Compounds at each concentration were tested at least three times independently. The obtained results were analyzed using Flowing software 2.5.1 (Cell Imaging Core, Turku Centre for Biotechnology, University of Turku and Åbo Akademi University, Finland).
# [9] = system: human biphenotypic B myelomonocytic leukemia MV4-11; assay: Antiproliferative activity, MTT assay, 72 h; type: cell-based; conditions: for IC50: Homo sapiens, MV4-11, 72 h, MTT, read-out: IC50; for SI: IC50 MCF-10A / IC50 MV4-11
# Experimental: as §1
# This assay was used against MV4-11 leukemia cells and was performed after 72 h of exposure of the tested agents to the cells. For each well, 20 µL of the MTT [3-(4,5-dimethylthiazol-2-yl)-2,5-diphenyl tetrazolium bromide] solution (5 mg/mL, Merck, Darmstadt, Germany) was added. After the incubation time (4 h at 37 °C), 80 µL of the lysing buffer was added to each well (mixture of 225 mL of DMF (dimethylformamide) Avantor, Poland; 67.5 g of SDS, Merck, Darmstadt, Germany; and 275 mL of distilled water). After the next 24 h, the absorbance of the samples was measured at a 570 nm wavelength on a Synergy H4 photometer (BioTek Instruments, Winooski, VT, USA). The absorbance of wells without the cells was the background.
# [10] = system: human normal epithelial cells from the mammary gland (MCF-10A); assay: Cytotoxicity on non-tumorigenic cells, SRB assay, 72 h; type: cell-based; conditions: Homo sapiens, MCF-10A normal cells, SRB, read-out: IC50
# Experimental: as §1, §2
# [11] = system: tested cell lines (MV4-11, A549, MCF-7, PC-3, HCT116, MiaPaca-2, Hs294T); assay: Antiproliferative activity, range over the tested cell lines; type: cell-based; conditions: Homo sapiens; range across cell lines, 72 h
# Experimental: as §1, with “The values of IC50 (inhibitory concentration 50%) were calculated separately for each experiment (repeated 3–5 times) using the Prolab-3 system which is based on Cheburator 0.4 software. Doxorubicin was applied as a reference drug.” left out
# This assay was used against MV4-11 leukemia cells and was performed after 72 h of exposure of the tested agents to the cells. […] After the next 24 h, the absorbance of the samples was measured at a 570 nm wavelength on a Synergy H4 photometer (BioTek Instruments, Winooski, VT, USA). The absorbance of wells without the cells was the background.
# The cytotoxicity assay was performed after the cultured cells were exposed to the tested agents for 72 h using the authomatic Washer dyspenser EL406, BioTek. […] The absorbance (at 540 nm) was measured on a Synergy H4 photometer (BioTek Instruments, Winooski, VT, USA). […]
# [12] = MV4-11, 72 h, higher concentrations
Compound,"induction of apoptosis [1, 12]",IC50 [2],SI [2],IC50 [3],SI [3],IC50 [4],SI [4],IC50 [5],SI [5],IC50 [6],SI [6],IC50 [7],SI [7],number of death cells ([8]; about 1.5 × IC50),number of cells in the G2/M and S phases [8],IC50 [9],SI [9],IC50 [10],also measured
C#CCCC(=O)OC[C@]12CC[C@@H](C(=C)C)C1C1CCC3[C@@]4(C)CC[C@H](OC(=O)CC(C)(C)C(=O)O)C(C)(C)C4CC[C@@]3(C)[C@]1(C)CC2 (stereo partly drawn) [Compound 5b],induction of apoptosis was observed,28.4 ± 3.23 µM,1.19,21.1 ± 1.54 µM,1.61,9.06 ± 2.92 µM,3.73,12.3 ± 2.92 µM,2.75,4.15 ± 0.92 µM,8.15,16.1 ± 4.76 µM,2.10,increased,decreased,4.76 ± 0.92 µM,7.10,33.8 ± 3.38 µM,"number of necrotic cells ([1]; MV4-11, 72 h): increased the number of necrotic cells; number of cells in the G2/M phase ([8]; MV4-11, 24 h): lowered"
C#CC(=O)OC[C@]12CC[C@@H](C(=C)C)C1C1CCC3[C@@]4(C)CC[C@H](OC(=O)CC(C)(C)CC(=O)O)C(C)(C)C4CC[C@@]3(C)[C@]1(C)CC2 (stereo partly drawn) [Compound 4a],induction of apoptosis was observed,7.54 ± 0.47 µM,4.40,0.86 ± 0.25 µM,,7.85 ± 2.35 µM,4.22,16.5 ± 1.88 µM,2.01,7.54 ± 1.25 µM,4.40,0.49 ± 0.23 µM,67,,,0.38 ± 0.14 µM,,33.1 ± 5.18 µM,"induction of apoptosis ([1]; MV4-11, 24 h): induced apoptosis"
C=C(C)[C@@H]1CC[C@]2(CO)CC[C@]3(C)C(CCC4[C@@]5(C)CC[C@H](OC(=O)CCC(=O)O)C(C)(C)C5CC[C@]43C)C12 (stereo partly drawn) [Compound 6],induction of apoptosis was observed,38.1 ± 3.87 µM,0.84,26.2 ± 5.71 µM,1.22,20.3 ± 5.53 µM,1.57,19 ± 6.45 µM,1.68,8.66 ± 1.1 µM,3.68,32.1 ± 1.66 µM,0.99,,,6.45 ± 2.03 µM,4.94,31.9 ± 4.24 µM,
C#CC(=O)OC[C@]12CC[C@@H](C(=C)C)C1C1CCC3[C@@]4(C)CC[C@H](OC(=O)CCC(=O)O)C(C)(C)C4CC[C@@]3(C)[C@]1(C)CC2 (stereo partly drawn) [Compound 6a],induction of apoptosis was observed,18.5 ± 9.75 µM,2.67,0.41 ± 0.08 µM,121,20.7 ± 9.08 µM,2.39,16 ± 1.01 µM,3.09,12.9 ± 0.67 µM,3.82,3.53 ± 0.67 µM,14,increased,decreased,2.57 ± 1.01 µM,,49.4 ± 17.8 µM,
C=C(C)[C@@H]1CC[C@]2(CO)CC[C@]3(C)C(CCC4[C@@]5(C)CC[C@H](OC(=O)CC(C)(C)CC(=O)O)C(C)(C)C5CC[C@]43C)C12 (stereo partly drawn) [Compound 4],induction of apoptosis was observed,22.6 ± 6.5 µM,1.39,19.2 ± 3.76 µM,1.64,11.1 ± 2.56 µM,2.83,12.1 ± 3.08 µM,2.60,3.76 ± 2.05 µM,8.36,24.4 ± 8.89 µM,1.29,,,4.77 ± 0.44 µM,6.60,31.5 ± 1.71 µM,IC50 [11]: 3.76 to 24.4 µM
"C=C(C)[C@@H]1CC[C@]2(CO)CC[C@]3(C)[C@H](CC[C@@H]4[C@@]5(C)CC[C@H](O)C(C)(C)[C@@H]5CC[C@]43C)[C@@H]12 [B, betulin, reference compound]",,144 ± 22.1 µM,0.68,51.5 ± 9.94 µM,,37.7 ± 7.45 µM,,43.6 ± 15.8 µM,,14 ± 1.13 µM,7.03,58.5 ± 15.6 µM,1.68,,,32.8 ± 12.9 µM,,98.48 ± 0.9 µM,"number of cells in the S and G0/G1 phases ([8]; MV4-11, 24 h, about 1.5 × IC50): lowered; number of cells in the G2/M phase ([8]; MV4-11, 24 h): lowered; IC50 [11]: 14 to 144 µM"
C=C(C)[C@@H]1CC[C@]2(COC(=O)C#CC3CC3)CC[C@]3(C)C(CCC4[C@@]5(C)CC[C@H](OC(=O)CC(C)(C)CC(=O)O)C(C)(C)C5CC[C@]43C)C12 (stereo partly drawn) [Compound 4e],,67.1 ± 14.5 µM,1.01,15.2 ± 5.91 µM,4.47,23.2 ± 5.91 µM,2.93,25.7 ± 4.43 µM,2.60,59.8 ± 22.2 µM,1.14,19.8 ± 5.61 µM,3.40,,,3.16 ± 0.88 µM,21.50,68 ± 34.9 µM,
C#CCCC(=O)OC[C@]12CC[C@@H](C(=C)C)C1C1CCC3[C@@]4(C)CC[C@H](OC(=O)CC(C)(C)CC(=O)O)C(C)(C)C4CC[C@@]3(C)[C@]1(C)CC2 (stereo partly drawn) [Compound 4b],induction of apoptosis was observed,24.5 ± 2.56 µM,1.33,11.6 ± 4.51 µM,2.82,7.82 ± 2.86 µM,4.17,11.7 ± 2.41 µM,2.78,4.06 ± 1.05 µM,8.04,10.7 ± 1.5 µM,3.06,increased,decreased,3.19 ± 1.29 µM,10.20,32.6 ± 2.41 µM,

# — PMC11821258 (Molecules, 2025)
